Results: PMC5080452 (Bioorganic & Medicinal Chemistry, 2016)

Columns and labels:
[1] = target: T1, Electrophorus electricus (Ee) AChE (Electrophorus electricus, UniProt O42275); assay: Acetylcholinesterase inhibitory activity (Ellman method); type: biochemical; conditions: mean ± SEM, read-out: EeAChE IC50
T1 construct: purchased Sigma-Aldrich
Description: The inhibitory activity against Electrophorus electricus (Ee) AChE (Sigma–Aldrich) was evaluated spectrophotometrically by the method of Ellman et al.[56] […] Inhibition curves were performed in duplicates using at least 10 increasing concentrations of inhibitors and preincubated for 20 min at 37 °C before adding the substrate. One duplicate sample without inhibitor was always present to yield 100% of AChE activity.
Results are expressed as mean ± SEM of at least 4 experiments performed in duplicate.

in vitro = conditions: pig, PAMPA
[2] = commercial drugs for PAMPA-BBB assay validation; cited from earlier work

T1 sequence (O42275 24-633): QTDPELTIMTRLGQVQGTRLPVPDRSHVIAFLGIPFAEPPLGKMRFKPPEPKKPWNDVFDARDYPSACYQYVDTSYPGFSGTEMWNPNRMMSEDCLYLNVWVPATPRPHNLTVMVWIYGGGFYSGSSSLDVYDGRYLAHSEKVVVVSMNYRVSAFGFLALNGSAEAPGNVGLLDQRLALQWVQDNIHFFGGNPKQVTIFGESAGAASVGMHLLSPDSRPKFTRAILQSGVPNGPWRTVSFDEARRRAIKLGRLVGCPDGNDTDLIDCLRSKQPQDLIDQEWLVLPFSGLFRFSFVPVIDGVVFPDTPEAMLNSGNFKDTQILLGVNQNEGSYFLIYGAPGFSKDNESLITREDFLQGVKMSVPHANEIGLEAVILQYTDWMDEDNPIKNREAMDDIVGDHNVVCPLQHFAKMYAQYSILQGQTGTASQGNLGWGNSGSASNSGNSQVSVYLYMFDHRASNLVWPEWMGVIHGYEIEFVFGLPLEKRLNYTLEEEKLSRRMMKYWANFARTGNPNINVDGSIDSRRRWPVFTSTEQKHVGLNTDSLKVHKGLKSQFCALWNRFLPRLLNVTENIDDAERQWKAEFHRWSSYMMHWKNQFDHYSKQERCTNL

SMILES: CC1=CC2Cc3nc4cc(Cl)ccc4c(NCCCN4CCCCC4)c3C(C1)C2 (racemic) [compound 7, 3-Chloro-6,7,10,11-tetrahydro-9-methyl-12-[(3-piperidinopropyl)amino]-7,11-methanocycloocta[b]quinoline]
- IC50 [1]: 48.4 ± 2.7 nM
- Papp (in vitro): 5.9 ± 0.4 ×10⁻⁶ cm/s

SMILES: CC1=CC2Cc3nc4cc(Cl)ccc4c(NCCCN4CCOCC4)c3C(C1)C2 (racemic) [compound 8, (±)-3-Chloro-6,7,10,11-tetrahydro-9-methyl-12-[(3-morpholinopropyl)amino]-7,11-methanocycloocta[b]quinoline]
- IC50 [1]: 13.3 ± 0.8 nM
- Papp (in vitro): 15 ± 1 ×10⁻⁶ cm/s

SMILES: CC1=CC2Cc3nc4cc(Cl)ccc4c(NCCCCC#N)c3C(C1)C2 (centres unmarked) [4a]
- IC50 [1]: 26.9 ± 1.1 nM

SMILES: CC1=CC2Cc3nc4cc(Cl)ccc4c(NCCCCCC#N)c3C(C1)C2 (centres unmarked) [4b]
- IC50 [1]: 31.1 ± 3.1 nM
- Papp (in vitro): 12.4 ± 0.6 ×10⁻⁶ cm/s

SMILES: CC1=CC2Cc3nc4cc(Cl)ccc4c(NCCCCCCCCCC#N)c3C(C1)C2 (centres unmarked) [4f]
- IC50 [1]: 9.67 ± 0.89 nM
- Papp (in vitro): 11.3 ± 1.2 ×10⁻⁶ cm/s

SMILES: CC1=CC2Cc3nc4cc(Cl)ccc4c(NCc4ccc(C#N)cc4)c3C(C1)C2 (centres unmarked) [4h]
- IC50 [1]: 158 ± 21 nM
- Papp (in vitro): 19.3 ± 1.2 ×10⁻⁶ cm/s

SMILES: CC1=CC2Cc3nc4cc(Cl)ccc4c(NCCCCCCCN)c3C(C1)C2 (centres unmarked) [5c]
- IC50 [1]: 36 ± 3.5 nM
- Papp (in vitro): 7.6 ± 0.7 ×10⁻⁶ cm/s

SMILES: CC1=CC2Cc3nc4cc(Cl)ccc4c(NCCCCCCCCN)c3C(C1)C2 (centres unmarked) [5d]
- IC50 [1]: 17.3 ± 1.2 nM
- Papp (in vitro): 9.8 ± 0.6 ×10⁻⁶ cm/s

SMILES: CC1=CC2Cc3nc4cc(Cl)ccc4c(NCCCCCCCCCN)c3C(C1)C2 (centres unmarked) [5e]
- IC50 [1]: 16.4 ± 1.8 nM
- Papp (in vitro): 7.1 ± 0.7 ×10⁻⁶ cm/s

SMILES: CC1=CC2Cc3nc4cc(Cl)ccc4c(NCCCCCCCCCCCN)c3C(C1)C2 (centres unmarked) [5g]
- IC50 [1]: 35.3 ± 3.9 nM
- Papp (in vitro): 4 ± 0.2 ×10⁻⁶ cm/s

SMILES: CC1=C[C@@H]2Cc3nc4cc(Cl)ccc4c(NCc4ccc(CN)cc4)c3[C@H](C1)C2 [5h]
- Papp (in vitro): 11.7 ± 1.1 ×10⁻⁶ cm/s

SMILES: CC1=CC2Cc3nc4cc(Cl)ccc4c(NCCCCCCNC(=N)N)c3C(C1)C2 (centres unmarked) [6b, 1-{6-[(3-Chloro-6,7,10,11-tetrahydro-9-methyl-7,11-methanocycloocta[b]quinolin-12-yl)amino]hexyl}guanidine]
- IC50 [1]: 11.8 ± 1.3 nM
- Papp (in vitro): 2.9 ± 0.4 ×10⁻⁶ cm/s

SMILES: CC1=CC2Cc3nc4cc(Cl)ccc4c(NCCCCCCCCCNC(=N)N)c3C(C1)C2 (centres unmarked) [6e, 1-{9-[(3-Chloro-6,7,10,11-tetrahydro-9-methyl-7,11-methanocycloocta[b]quinolin-12-yl)amino]nonyl}guanidine]
- IC50 [1]: 10.6 ± 0.8 nM
- Papp (in vitro): 5.4 ± 0.3 ×10⁻⁶ cm/s

SMILES: N#CCCCCCCNc1c2c(nc3ccccc13)CCCC2 [11c, 7-[(1,2,3,4-Tetrahydroacridin-9-yl)amino]heptanenitrile]
- IC50 [1]: 53.9 ± 3 nM
- Papp (in vitro): 11.2 ± 0.2 ×10⁻⁶ cm/s

SMILES: N#CCCCCCCCCNc1c2c(nc3ccccc13)CCCC2 [11e, 9-[(1,2,3,4-Tetrahydroacridin-9-yl)amino]nonanenitrile]
- IC50 [1]: 44.9 ± 1.6 nM
- Papp (in vitro): 7.6 ± 0.35 ×10⁻⁶ cm/s

SMILES: N#CCCCCCCNc1c2c(nc3cc(Cl)ccc13)CCCC2 [12c, 7-[(6-Chloro-1,2,3,4-tetrahydroacridin-9-yl)amino]heptanenitrile]
- Papp (in vitro): 16.7 ± 0.9 ×10⁻⁶ cm/s

SMILES: N#CCCCCCCCNc1c2c(nc3cc(Cl)ccc13)CCCC2 [12d, 8-[(6-Chloro-1,2,3,4-tetrahydroacridin-9-yl)amino]octanenitrile]
- IC50 [1]: 46 ± 6 nM
- Papp (in vitro): 14.7 ± 0.8 ×10⁻⁶ cm/s

SMILES: N#CCCCCCCCCNc1c2c(nc3cc(Cl)ccc13)CCCC2 [12e, 9-[(6-Chloro-1,2,3,4-tetrahydroacridin-9-yl)amino]nonanenitrile]
- IC50 [1]: 24.3 ± 4.5 nM
- Papp (in vitro): 5.4 ± 0.4 ×10⁻⁶ cm/s

SMILES: NCCCCCCCNc1c2c(nc3ccccc13)CCCC2 [13c]
- IC50 [1]: 23.9 ± 2.6 nM
- Papp (in vitro): 7.4 ± 0.1 ×10⁻⁶ cm/s

SMILES: NCCCCCCCCCNc1c2c(nc3ccccc13)CCCC2 [13e]
- IC50 [1]: 15.6 ± 1.5 nM
- Papp (in vitro): 6.9 ± 0.5 ×10⁻⁶ cm/s

SMILES: NCCCCCCCCCNc1c2c(nc3cc(Cl)ccc13)CCCC2 [14e]
- IC50 [1]: 14.5 ± 1.6 nM
- Papp (in vitro): 5.8 ± 0.3 ×10⁻⁶ cm/s

SMILES: N=C(N)NCCCCCCCNc1c2c(nc3ccccc13)CCCC2 [15c, 1-{7-[(1,2,3,4-Tetrahydroacridin-9-yl)amino]heptyl}guanidine]
- IC50 [1]: 23.9 ± 2.6 nM
- Papp (in vitro): 5.9 ± 0.3 ×10⁻⁶ cm/s

SMILES: N=C(N)NCCCCCCCCCNc1c2c(nc3ccccc13)CCCC2 [15e, 1-{9-[(1,2,3,4-Tetrahydroacridin-9-yl)amino]nonyl}guanidine]
- IC50 [1]: 30.5 ± 1.9 nM
- Papp (in vitro): 6.5 ± 0.3 ×10⁻⁶ cm/s

SMILES: N=C(N)NCCCCCCCCCNc1c2c(nc3cc(Cl)ccc13)CCCC2 [16e, 1-{9-[(6-Chloro-1,2,3,4-tetrahydroacridin-9-yl)amino]nonyl}guanidine]
- IC50 [1]: 16.4 ± 1.5 nM
- Papp (in vitro): 6.7 ± 0.4 ×10⁻⁶ cm/s

SMILES: CN(C)CCCN1c2ccccc2Sc2ccccc21 [Promazine]
- Pe, literature value [2]: 8.8 10^−6 cm s^−1

SMILES: CC1=CC2Cc3nc4cc(Cl)ccc4c(N)c3C(C1)C2 (centres unmarked) [compound 1, huprine Y, reference compound]
- IC50 [1]: 0.3 ± 0.01 nM
